Test results: the supplement of paper PMC9780213

What was measured:
Details in all cases: treatment time: 24 h
U2OS-LMNB1-TUBA1B-ACTB = assay: cell count relative to DMSO control (panel C1, DRAQ5/ER stain) (fraction of control); higher = more cells (less toxicity)
Protocol: (§1)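 U2OS-derived cells in 384-well plates were treated for 24 h with a 7-point 2-fold dilution series (top dose 20 µM for most compounds; final max DMSO 1%), then fixed, stained in four marker panels and imaged on a Cellomics ArrayScan. Cell count per treatment (three replicate plates merged) is given as a fraction of DMSO control. Panel A used parental U2OS, panel B U2OS-mOrange2-Peroxisome, panel C1 U2OS-LMNB1-TUBA1B-ACTB (DRAQ5 nuclei).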

U2OS = assay: cell count relative to DMSO control (panel A, nuclei/RNA/PMG/mitochondria stain) (fraction of control); higher = more cells (less toxicity)
Protocol: as §1

U2OS-mOrange2-Peroxisome = assay: cell count relative to DMSO control (panel B, lysosome/peroxisome/lipid stain) (fraction of control); higher = more cells (less toxicity)
Protocol: as §1

| Structure (SMILES) | cell count (U2OS-LMNB1-TUBA1B-ACTB; 0.3125 µM) | cell count (U2OS-LMNB1-TUBA1B-ACTB; 0.625 µM) | cell count (U2OS-LMNB1-TUBA1B-ACTB; 1.25 µM) | cell count (U2OS-LMNB1-TUBA1B-ACTB; 2.5 µM) | cell count (U2OS-LMNB1-TUBA1B-ACTB; 5 µM) | cell count (U2OS-LMNB1-TUBA1B-ACTB; 10 µM) | cell count (U2OS-LMNB1-TUBA1B-ACTB; 20 µM) | cell count (U2OS; 0.3125 µM) | cell count (U2OS; 0.625 µM) | cell count (U2OS; 1.25 µM) | cell count (U2OS; 2.5 µM) | cell count (U2OS; 5 µM) | cell count (U2OS; 10 µM) | cell count (U2OS; 20 µM) | cell count (U2OS-mOrange2-Peroxisome; 0.3125 µM) | cell count (U2OS-mOrange2-Peroxisome; 0.625 µM) | cell count (U2OS-mOrange2-Peroxisome; 1.25 µM) | cell count (U2OS-mOrange2-Peroxisome; 2.5 µM) | cell count (U2OS-mOrange2-Peroxisome; 5 µM) | cell count (U2OS-mOrange2-Peroxisome; 10 µM) | cell count (U2OS-mOrange2-Peroxisome; 20 µM) | cell count (U2OS-LMNB1-TUBA1B-ACTB; 0.15625 µM) | cell count (U2OS; 0.15625 µM) | cell count (U2OS-mOrange2-Peroxisome; 0.15625 µM) | cell count (U2OS-LMNB1-TUBA1B-ACTB; 0.07812 µM) | cell count (U2OS; 0.07812 µM) | cell count (U2OS-mOrange2-Peroxisome; 0.07812 µM) |
| --- | --- | --- | --- | --- | --- | --- | --- | --- | --- | --- | --- | --- | --- | --- | --- | --- | --- | --- | --- | --- | --- | --- | --- | --- | --- | --- | --- |
| O=C(Oc1cc(S(=O)(=O)c2ccccc2)ccc1[N+](=O)[O-])c1ccc(Cl)cc1 | 1.05 | 1.06 | 0.969 | 0.953 | 0.983 | 1.13 | 0.989 | 1.05 | 1.08 | 1.11 | 1.06 | 0.997 | 0.944 | 0.966 | 0.726 | 0.838 | 0.873 | 1.02 | 1.08 | 1.26 | 0.846 |  |  |  |  |  |  |
| Cc1ccc(S(=O)(=O)c2ccc([N+](=O)[O-])o2)cc1 | 1.1 | 1.02 | 1.12 | 1.1 | 1.02 | 0.982 |  | 0.974 | 1.04 | 1.05 | 1.01 | 0.917 | 0.886 |  | 0.934 | 0.938 | 0.864 | 1.16 | 0.964 | 0.837 |  | 1.01 | 1.02 | 0.927 |  |  |  |
| Nc1c2ccccc2nc2ccccc12 [9-aminoacridine] | 1.11 | 1.05 | 1.12 | 0.826 | 0.239 | 0.0589 | 0.0515 | 1.08 | 1.12 | 1 | 0.751 | 0.383 | 0.226 | 0.254 | 1.12 | 0.733 | 0.6 | 0.346 | 0.104 | 0.0699 | 0.0813 |  |  |  |  |  |  |
| Cc1[nH]c2ccccc2c1CCNC(=O)c1cccs1 [CK-636] | 1.16 | 1.06 | 1.09 | 1.04 | 0.908 | 0.887 | 0.858 | 1.06 | 0.971 | 1.01 | 1.01 | 0.977 | 0.961 | 0.865 | 0.793 | 0.764 | 0.737 | 0.756 | 0.783 | 1.04 | 0.977 |  |  |  |  |  |  |
| O=C(O)CCCCC(CCSCc1ccccc1)SCc1ccccc1 (configuration not stated) [CPI-613] | 1.36 | 1.4 | 1.03 | 1.06 | 1.15 | 1.08 | 1.14 | 1.01 | 0.993 | 0.975 | 1.04 | 1.14 | 1.11 | 1.05 | 0.907 | 1.1 | 0.897 | 1.1 | 0.851 | 0.902 | 0.849 |  |  |  |  |  |  |
| OC(CS)C(O)CS (configuration not stated) [DTT] | 0.887 | 0.811 | 0.809 | 0.764 | 0.806 | 0.477 | 0.457 | 0.863 | 0.785 | 0.733 | 0.765 | 0.729 | 0.201 | 0.11 | 0.732 | 0.714 | 0.826 | 0.911 | 0.773 | 0.0574 | 0.0584 |  |  |  |  |  |  |
| N#CC(C#N)=NNc1ccc(OC(F)(F)F)cc1 [FCCP] | 1.11 | 1.13 | 1.01 | 1.05 | 0.894 | 0.666 | 0.651 | 0.961 | 0.945 | 0.883 | 0.867 | 0.897 | 0.622 | 0.704 | 0.804 | 0.769 | 0.715 | 0.625 | 0.802 | 0.659 | 0.618 |  |  |  |  |  |  |
| NCCCCC(N)C(=O)NC(CCCCN)C(=O)NC(Cc1c[nH]c2ccccc12)C(=O)NC(Cc1c[nH]c2ccccc12)C(=O)NC(CCCCN)C(=O)NC(CCCCN)C(=O)NC(Cc1c[nH]c2ccccc12)C(=O)NC(C(=O)NC(CCCCN)C(N)=O)C(c1ccccc1)c1ccccc1 (configuration not stated) [LTX-315] | 1.13 | 1.1 | 1.08 | 1.05 | 0.842 | 0.47 | 0.0329 | 1.04 | 0.967 | 1.09 | 0.948 | 0.657 | 0.15 | 0.0373 | 0.785 | 0.756 | 0.817 | 0.766 | 0.885 | 0.508 | 0.0593 |  |  |  |  |  |  |
| CCCC[C@@H](C=O)NC(=O)[C@H](CC(C)C)NC(=O)[C@H](CC(C)C)NC(C)=O [MG-101] | 1.15 | 1.07 | 1.08 | 0.727 | 0.443 | 0.173 | 0.0712 | 0.986 | 0.975 | 0.773 | 0.429 | 0.198 | 0.14 | 0.0899 | 0.692 | 0.642 | 0.697 | 0.608 | 0.346 | 0.242 | 0.16 |  |  |  |  |  |  |
| CC(C)n1nc(-c2ccc3oc(N)nc3c2)c2c(N)ncnc21 [MLN0128] | 0.7 | 0.698 | 0.614 | 0.557 | 0.271 |  |  | 0.521 | 0.481 | 0.454 | 0.408 | 0.204 |  |  | 0.42 | 0.439 | 0.393 | 0.301 | 0.0428 |  |  | 0.748 | 0.584 | 0.426 | 0.774 | 0.646 | 0.578 |
| CN1CCC(c2c(O)cc(O)c3c(=O)cc(-c4ccccc4Cl)oc23)[C@@H](O)C1 (some centres not stated) [alvocidib] | 0.864 | 0.789 | 0.569 | 0.314 | 0.253 | 0.239 | 0.257 | 0.804 | 0.575 | 0.44 | 0.221 | 0.142 | 0.14 | 0.153 | 1.61 | 1.52 | 1.18 | 1.24 | 1.29 | 0.687 | 0.372 |  |  |  |  |  |  |
| COc1cc(NS(C)(=O)=O)ccc1Nc1c2ccccc2nc2ccccc12 [amsacrine] | 0.954 | 0.858 | 0.513 | 0.448 | 0.441 | 0.402 | 0.373 | 1.04 | 0.838 | 0.405 | 0.402 | 0.322 | 0.359 | 0.329 | 0.619 | 0.639 | 0.486 | 0.428 | 0.312 | 0.203 | 0.142 |  |  |  |  |  |  |
| N#C[C@H](O[C@@H]1O[C@H](CO[C@@H]2O[C@H](CO)[C@@H](O)[C@H](O)[C@H]2O)[C@@H](O)[C@H](O)[C@H]1O)c1ccccc1 [amygdalin] | 1.05 | 1.15 | 0.992 | 1.01 | 0.959 | 1.1 | 0.956 | 1.09 | 1.06 | 1.07 | 1.02 | 0.921 | 1.05 | 0.974 | 0.877 | 0.848 | 0.731 | 0.983 | 0.805 | 0.948 | 0.953 |  |  |  |  |  |  |
| COc1ccc(C[C@H]2NC[C@H](O)[C@H]2OC(C)=O)cc1 [anisomycin] | 0.84 | 0.602 | 0.226 | 0.0722 | 0.0685 | 0.0611 | 0.166 | 0.794 | 0.502 | 0.186 | 0.0402 | 0.0213 | 0.0357 | 0.053 | 0.678 | 0.277 | 0.0792 | 0.0323 | 0.133 | 0.195 | 0.1 |  |  |  |  |  |  |
| CCCC[C@H]1C(=O)O[C@H](C)[C@H](NC(=O)c2cccc(NC=O)c2O)C(=O)O[C@@H](C)[C@@H]1OC(=O)CC(C)C [antimycin-a] | 1.05 | 0.943 | 0.716 | 0.66 | 0.626 | 0.54 |  | 1.02 | 0.799 | 0.644 | 0.587 | 0.497 | 0.507 |  | 0.945 | 0.858 | 0.811 | 0.724 | 0.66 | 0.739 |  | 1.01 | 1.04 | 1.04 |  |  |  |
| O=C(/C=C/c1cccc(S(=O)(=O)Nc2ccccc2)c1)NO [belinostat] | 1.04 | 1.04 | 1.02 | 0.99 | 1.09 | 0.701 | 0.397 | 1.07 | 1.03 | 1.1 | 1.07 | 1.04 | 0.557 | 0.351 | 0.814 | 0.805 | 1.05 | 1.14 | 1.19 | 1.18 | 0.581 |  |  |  |  |  |  |
| Cn1c(CCCC(=O)O)nc2cc(N(CCCl)CCCl)ccc21 [bendamustine] | 1.02 | 1.03 | 0.607 | 0.26 | 0.277 | 0.264 | 0.284 | 0.945 | 0.814 | 0.265 | 0.1 | 0.145 | 0.133 | 0.162 | 0.462 | 0.439 | 0.374 | 0.371 | 0.366 | 0.422 | 0.454 |  |  |  |  |  |  |
